Measurements reported in PubChem BioAssay AID1259407 (Chemical Carcinogenesis Research Information System (CCRIS), 2018).
Activity calls are given as the source filed them. The rule behind the calls is not given here.

Test system: CCRIS mutagenicity, Ames/micronucleus/aberration tests
Experiment: CCRIS mutagenicity studies
[1] = Test System: AMES SALMONELLA TYPHIMURIUM, Strain/Indicator: TA98, Metabolic Activation: NONE, Method: STANDARD PLATE
[2] = Test System: AMES SALMONELLA TYPHIMURIUM, Strain/Indicator: TA100, Metabolic Activation: NONE, Method: STANDARD PLATE
[3] = Test System: AMES SALMONELLA TYPHIMURIUM, Strain/Indicator: TA1535, Metabolic Activation: NONE, Method: STANDARD PLATE
[4] = Test System: AMES SALMONELLA TYPHIMURIUM, Strain/Indicator: TA1537, Metabolic Activation: NONE, Method: STANDARD PLATE
[5] = Test System: AMES SALMONELLA TYPHIMURIUM, Strain/Indicator: TA100, Metabolic Activation: RAT, LIVER, S-9, AROCLOR 1254, Method: STANDARD PLATE

Structure (SMILES)	mutagenic call [1]	mutagenic call [2]	mutagenic call [3]	mutagenic call [4]	mutagenic call [5]	other results
c1ccc2sncc2c1	inactive; negative	inactive; negative	inactive; negative	inactive; negative	–	mutagenic call (Test System: AMES SALMONELLA TYPHIMURIUM, Strain/Indicator: TA98, Metabolic Activation: S-9, Method: STANDARD PLATE): inactive; negative; mutagenic call (Test System: AMES SALMONELLA TYPHIMURIUM, Strain/Indicator: TA100, Metabolic Activation: S-9, Method: STANDARD PLATE): inactive; negative; mutagenic call (Test System: AMES SALMONELLA TYPHIMURIUM, Strain/Indicator: TA1535, Metabolic Activation: S-9, Method: STANDARD PLATE): inactive; negative; mutagenic call (Test System: AMES SALMONELLA TYPHIMURIUM, Strain/Indicator: TA1537, Metabolic Activation: S-9, Method: STANDARD PLATE): inactive; negative
O=C(CC(O)(CC(=O)OCCBr)C(=O)OCCBr)OCCBr	–	inactive; negative	–	–	active; positive	–
COc1c(N2C[C@@H]3CCCN[C@@H]3C2)c(F)cc2c(=O)c(C(=O)O)cn(C3CC3)c12	–	–	–	–	–	mutagenic call (Test System: CHINESE HAMSTER V-79, Strain/Indicator: V-79 (HGPRT)/6-THIOGUANINE, Metabolic Activation: NONE, Method: STANDARD PLATE): inactive; negative
Cc1c(N)nc(C(CC(N)=O)NCC(N)C(N)=O)nc1C(=O)NC(C(=O)NC(C)C(O)C(C)C(=O)NC(C(=O)NCCc1nc(-c2nc(C(=O)NCCCCN(CCCCN=C(N)N)C(=N)N)cs2)cs1)C(C)O)C(OC1OC(CO)C(O)C(O)C1OC1OC(CO)C(O)C(OC(N)=O)C1O)c1cnc[nH]1 (configuration not stated)	–	–	–	–	–	mutagenic call (Test System: AMES SALMONELLA TYPHIMURIUM, Strain/Indicator: TA102, Metabolic Activation: NONE, Method: PREINCUBATION): active; positive
Cc1c(C)c(N)c(C)c(C)c1N	inactive; negative	inactive; negative	inactive; negative	inactive; negative	inactive; negative	mutagenic call (Test System: AMES SALMONELLA TYPHIMURIUM, Strain/Indicator: TA98, Metabolic Activation: RAT, LIVER, S-9, AROCLOR 1254, Method: STANDARD PLATE): inactive; negative; mutagenic call (Test System: AMES SALMONELLA TYPHIMURIUM, Strain/Indicator: TA1535, Metabolic Activation: RAT, LIVER, S-9, AROCLOR 1254, Method: STANDARD PLATE): inactive; negative; mutagenic call (Test System: AMES SALMONELLA TYPHIMURIUM, Strain/Indicator: TA1537, Metabolic Activation: RAT, LIVER, S-9, AROCLOR 1254, Method: STANDARD PLATE): inactive; negative; mutagenic call (Test System: AMES SALMONELLA TYPHIMURIUM, Strain/Indicator: TA1538, Metabolic Activation: NONE, Method: STANDARD PLATE): inactive; negative; mutagenic call (Test System: AMES SALMONELLA TYPHIMURIUM, Strain/Indicator: TA1538, Metabolic Activation: RAT, LIVER, S-9, AROCLOR 1254, Method: STANDARD PLATE): inactive; negative
